Data reported in patent US4348264A, “Photocatalyzed process for producing carbapenams and carbapen-2-ems” (Pfizer Inc., priority 1981, dated 1982).
≈ marks a conversion by molar mass, not a printed value.

Tests used:
Format in all cases: cell-based
[1] = system: Bacillus subtilis; experiment: Standard disc-plate method, zone of inhibition; details: Bacillus subtilis; 25 microgram discs
From the text: (§1) The utility of the various compounds as intermediates to other compounds of the present invention will be evident from the preceding discussion. The antibacterial activity of these compounds, reflecting their utility in the control of susceptible bacterial infections in man and animals, as animal feed additives for promotion of growth, or as preservatives of materials biodegraded by susceptible microorganisms, is best measured by the standard disc-plate method routinely employed in clinical laboratories for determining the sensitivity of microorganisms to antimicrobial substances. Sensitivity discs are prepared by dipping a standard 6.25 mm. paper disc into a solution of the compound to be tested (conc. 1 mg./ml.) in a volatile solvent (e.g. methylene chloride) and the disc dried, producing discs containing approximately 25 microg. of the compound. The discs are placed on the surface of agar growth media seeded with the test microorganism, previously plated into Petri dishes. The plates are incubated overnight at 35°-37° C. Activity of the test compound is reflected by a zone of inhibition of bacterial growth around the test disc. The diameter of this zone provides a quantitative measure of the activity of the antibacterial substance. The activity of various compounds of the present invention is summarized in Table I. For comparison, results obtained with 10 microg. discs of ampicillin and penicillin G are included as positive controls.

[2] = system: Escherichia coli; experiment: Standard disc-plate method, zone of inhibition; details: Escherichia coli, 25 microgram discs
From the text: as §1

[3] = system: Micrococcus luteus; experiment: Standard disc-plate method, zone of inhibition; details: Micrococcus luteus; 25 microgram discs
From the text: as §1

[4] = system: Staphylococcus aureus (Antibiotic Resistant); experiment: Standard disc-plate method, zone of inhibition; details: Staphylococcus aureus; 25 microgram discs; antibiotic resistant
From the text: as §1

[5] = system: Staphylococcus aureus; experiment: Standard disc-plate method, zone of inhibition; details: Staphylococcus aureus; 25 microgram discs
From the text: as §1

[6] = system: Vibrio percolans; experiment: Standard disc-plate method, zone of inhibition; details: Comamonas terrigena, 25 microgram discs
From the text: as §1

[7] = system: Proteus morgani; experiment: Serial dilution-tube method, MIC; details: brain heart infusion broth; read-out: Minimum Inhibitory Concentration
[8] = system: Citrobacter diversus; experiment: Serial dilution-tube method, MIC; details: Citrobacter koseri; brain heart infusion broth; read-out: Minimum Inhibitory Concentration
[9] = system: Enterobacter cloacae; experiment: Serial dilution-tube method, MIC; details: Enterobacter cloacae; brain heart infusion broth; read-out: Minimum Inhibitory Concentration
[10] = system: Serratia marcescens; experiment: Serial dilution-tube method, MIC; details: Serratia marcescens; brain heart infusion broth; read-out: Minimum Inhibitory Concentration
[11] = system: Klebsiella pneumoniae; experiment: Serial dilution-tube method, MIC; details: Klebsiella pneumoniae; brain heart infusion broth; read-out: Minimum Inhibitory Concentration
[12] = system: Pseudomonas aeruginosa; experiment: Serial dilution-tube method, MIC; details: Pseudomonas aeruginosa; brain heart infusion broth; read-out: Minimum Inhibitory Concentration
[13] = system: Escherichia coli (Antibiotic Resistant); experiment: Serial dilution-tube method, MIC; details: Escherichia coli, brain heart infusion broth, read-out: Minimum Inhibitory Concentration
[14] = system: Escherichia coli; experiment: Serial dilution-tube method, MIC; details: Escherichia coli; brain heart infusion broth; read-out: Minimum Inhibitory Concentration
[15] = system: Staphylococcus aureus (Antibiotic Resistant); experiment: Serial dilution-tube method, MIC; set-up: key to synergistic effect with ampicillin: Shows a synergistic effect when tested 1:1 with ampicillin; details: for MIC: Staphylococcus aureus, brain heart infusion broth, read-out: Minimum Inhibitory Concentration
[16] = system: Staphylococcus aureus; experiment: Serial dilution-tube method, MIC; details: Staphylococcus aureus; brain heart infusion broth; read-out: Minimum Inhibitory Concentration

| MIC [7] [µg/mL] | MIC [8] [µg/mL] | MIC [9] [µg/mL] | MIC [10] [µg/mL] | MIC [11] [µg/mL] | MIC [12] [µg/mL] | MIC [13] [µg/mL] | MIC [14] [µg/mL] | MIC [15] [µg/mL] | MIC [16] [µg/mL] | SMILES | zone of inhibition at 25 µg/disc [1] [mm] | zone of inhibition at 25 µg/disc [2] [mm] | zone of inhibition at 25 µg/disc [3] [mm] | zone of inhibition at 25 µg/disc [4] [mm] | zone of inhibition at 25 µg/disc [5] [mm] | zone of inhibition at 25 µg/disc [6] [mm] | synergistic effect with ampicillin ([15]; tested 1:1 with ampicillin) |
| --- | --- | --- | --- | --- | --- | --- | --- | --- | --- | --- | --- | --- | --- | --- | --- | --- | --- |
| > 200 | > 200 | > 200 | > 200 | > 200 | > 200 | > 200 | > 200 | > 200 | > 200 | CC1=C(C(=O)OCOC(=O)C(C)(C)C)N2C(=O)CC2C1=O (centres unmarked) [H H POM CH3 O II, Pivaloyloxymethyl 2-Methyl-1-oxocarbapen-2-em-3-carboxylate] | 37 | 0 | 26 | 18 | 22 | 14 | – |
| > 200 | > 200 | > 200 | > 200 | > 200 | > 200 | > 200 | > 200 | 200 | 25 (≈ 55.7 µM) | CC1C(O)C2C(NC(=O)COc3ccccc3)C(=O)N2C1C(=O)OCOC(=O)C(C)(C)C (centres unmarked) [PMA H POM CH3 H OH I, Pivaloyloxymethyl 1-Hydroxy-2-methyl-6-(2-phenoxyacetamido)carbapenam-3-carboxylate] | 23 | 0 | 14 | 17 | 20 | – | a |
